Test results from US8877748B2, “Heterocyclic fused anthraquinone derivatives, manufacturing method and pharmaceutical composition using thereof” (National Defense Medical Center, priority 2012, dated 2014).

Assays:
[1] = test system: MDA-MB-231/ATCC; assay: NCI one-dose screening, breast cancer MDA-MB-231/ATCC; format: cell-based, human; details: 10 μM
[2] = test system: SN12C; assay: NCI one-dose screening, renal cancer SN12C; format: cell-based, human; details: 10 μM
[3] = test system: MALME-3M; assay: NCI one-dose screening, melanoma MALME-3M; format: cell-based, human; details: 10 μM
[4] = test system: PC-3 prostate cancer cell line; assay: SRB assay cell viability, PC-3 prostate cancer cell line; format: cell-based, human; details: Homo sapiens, PC-3 prostate cancer cell line, Table II prints no unit, μM printed, read-out: SRB assay: 50% inhibition of cancer cell proliferation of sample concentration (IC50) of PC-3 prostate cancer cell line
[5] = test system: OVCAR-5; assay: NCI one-dose screening, ovarian cancer OVCAR-5; format: cell-based, human; details: 10 μM
[6] = test system: SK-MEL-2; assay: NCI one-dose screening, melanoma SK-MEL-2; format: cell-based, human; details: 10 μM
[7] = test system: SNB-75; assay: NCI one-dose screening, CNS cancer SNB-75; format: cell-based, human; details: 10 μM
[8] = test system: UACC-257; assay: NCI one-dose screening, melanoma UACC-257; format: cell-based, human; details: 10 μM
[9] = test system: NCI-H522; assay: NCI one-dose screening, non-small cell lung cancer NCI-H522; format: cell-based, human; details: 10 μM
[10] = test system: NCl/ADR-RES; assay: NCI one-dose screening, breast cancer NCl/ADR-RES; format: cell-based, human; details: 10 μM; listed under Ovarian cancer
[11] = test system: LOX IMVI; assay: NCI one-dose screening, melanoma LOX IMVI; format: cell-based, human; details: 10 μM
[12] = test system: MDA-MB-468; assay: NCI one-dose screening, breast cancer MDA-MB-468; format: cell-based, human; details: 10 μM
[13] = test system: RXF, 393; assay: NCI one-dose screening, renal cancer RXF, 393; format: cell-based, human; details: 10 μM
[14] = test system: COLO 205; assay: NCI one-dose screening, colon cancer COLO 205; format: cell-based, human; details: 10 μM
[15] = test system: NCI-H460; assay: NCI one-dose screening, non-small cell lung cancer NCI-H460; format: cell-based, human; details: 10 μM
[16] = test system: A549/ATCC; assay: NCI one-dose screening, non-small cell lung cancer A549/ATCC; format: cell-based, human; details: 10 μM
[17] = test system: NCI-H23; assay: NCI one-dose screening, non-small cell lung cancer NCI-H23; format: cell-based, human; details: 10 μM
[18] = test system: SNB-19; assay: NCI one-dose screening, CNS cancer SNB-19; format: cell-based, human; details: 10 μM
[19] = test system: ACHN; assay: NCI one-dose screening, renal cancer ACHN; format: cell-based, human; details: 10 μM
[20] = test system: SK-MEL-5; assay: NCI one-dose screening, melanoma SK-MEL-5; format: cell-based, human; details: 10 μM
[21] = NCI one-dose screening, renal cancer A489; format: cell-based, human; details: 10 μM
[22] = test system: CAKI-1; assay: NCI one-dose screening, renal cancer CAKI-1; format: cell-based, human; details: 10 μM
[23] = test system: PC-3; assay: NCI one-dose screening, prostate cancer PC-3; format: cell-based, human; details: 10 μM
[24] = test system: SF-539; assay: NCI one-dose screening, CNS cancer SF-539; format: cell-based, human; details: 10 μM
[25] = test system: SF-295; assay: NCI one-dose screening, CNS cancer SF-295; format: cell-based, human; details: 10 μM
[26] = test system: SK-OV-3; assay: NCI one-dose screening, ovarian cancer SK-OV-3; format: cell-based, human; details: 10 μM
[27] = test system: PRMI-8226 cell line; assay: NCI one-dose screening, leukemia PRMI-8226; format: cell-based, human; details: 10 μM
[28] = test system: BT-549; assay: NCI one-dose screening, breast cancer BT-549; format: cell-based, human; details: 10 μM
[29] = test system: EKVX; assay: NCI one-dose screening, non-small cell lung cancer EKVX; format: cell-based, human; details: 10 μM
[30] = test system: UO-31; assay: NCI one-dose screening, renal cancer UO-31; format: cell-based, human; details: 10 μM
[31] = test system: HCT-15; assay: NCI one-dose screening, colon cancer HCT-15; format: cell-based, human; details: 10 μM
[32] = test system: HT29; assay: NCI one-dose screening, colon cancer HT29; format: cell-based, human; details: 10 μM
[33] = test system: MCF7; assay: NCI one-dose screening, breast cancer MCF7; format: cell-based, human; details: 10 μM
[34] = test system: OVCAR-8; assay: NCI one-dose screening, ovarian cancer OVCAR-8; format: cell-based, human; details: 10 μM
[35] = test system: KM12; assay: NCI one-dose screening, colon cancer KM12; format: cell-based, human; details: 10 μM
[36] = test system: M14; assay: NCI one-dose screening, melanoma M14; format: cell-based, human; details: 10 μM
[37] = test system: SR; assay: NCI one-dose screening, leukemia SR; format: cell-based, human; details: 10 μM
[38] = test system: UACC-62; assay: NCI one-dose screening, melanoma UACC-62; format: cell-based, human; details: 10 μM
[39] = test system: DU145; assay: NCI one-dose screening, prostate cancer DU145; format: cell-based, human; details: 10 μM
[40] = test system: OVCAR-3; assay: NCI one-dose screening, ovarian cancer OVCAR-3; format: cell-based, human; details: 10 μM
[41] = test system: HL-60, TB; assay: NCI one-dose screening, leukemia HL-60, TB; format: cell-based, human; details: 10 μM
[42] = test system: MOLT-4; assay: NCI one-dose screening, leukemia MOLT-4; format: cell-based, human; details: 10 μM
[43] = test system: HOP-62; assay: NCI one-dose screening, non-small cell lung cancer HOP-62; format: cell-based, human; details: 10 μM
[44] = test system: HOP-92; assay: NCI one-dose screening, non-small cell lung cancer HOP-92; format: cell-based, human; details: 10 μM
[45] = test system: IGROV1; assay: NCI one-dose screening, ovarian cancer IGROV1; format: cell-based, human; details: 10 μM
[46] = test system: U251; assay: NCI one-dose screening, CNS cancer U251; format: cell-based, human; details: 10 μM
[47] = test system: SK-MEL-28; assay: NCI one-dose screening, melanoma SK-MEL-28; format: cell-based, human; details: 10 μM
[48] = test system: SF-268; assay: NCI one-dose screening, CNS cancer SF-268; format: cell-based, human; details: 10 μM
[49] = test system: HCC-2998; assay: NCI one-dose screening, colon cancer HCC-2998; format: cell-based, human; details: 10 μM
[50] = test system: human tumor cell lines; assay: NCI one-dose screening, Mean / Delta / Range of growth percent over all tested cell lines; format: cell-based; details: 10 μM
[51] = test system: T-47D; assay: NCI one-dose screening, breast cancer T-47D; format: cell-based, human; details: 10 μM
[52] = test system: HCT-116; assay: NCI one-dose screening, colon cancer HCT-116; format: cell-based, human; details: 10 μM
[53] = test system: MDA, -MB-435; assay: NCI one-dose screening, breast cancer MDA, -MB-435; format: cell-based, human; details: 10 μM; listed under Melanoma
[54] = test system: K562cell line; assay: NCI one-dose screening, leukemia K562; format: cell-based, human; details: 10 μM
[55] = test system: 786-O; assay: NCI one-dose screening, renal cancer 786-O; format: cell-based, human; details: 10 μM
[56] = test system: HS 578-T; assay: NCI one-dose screening, breast cancer HS 578-T; format: cell-based, human; details: 10 μM; Breast cancer
[57] = test system: NCI-H226; assay: NCI one-dose screening, non-small cell lung cancer NCI-H226; format: cell-based, human; details: 10 μM
[58] = test system: TK-10; assay: NCI one-dose screening, renal cancer TK-10; format: cell-based, human; details: 10 μM

In the case of `O=C1c2ccccc2C(=O)c2c1cc(Sc1ccc(F)cc1F)c1nsnc21` [C39, 4-(2,4-difluorophenylthio)anthra[2,1-c] [1,2,5]thiadiazol-6,11-dione], the “Growth Percent MDA-MB-231/ATCC” value [1] is reported as −9.73%, the “Growth Percent SN12C” value [2] is reported as 9.12% and the “Growth Percent MALME-3M” value [3] is reported as 39.46%. For the same compound, the IC50 [4] was 14.8 µM, the “Growth Percent OVCAR-5” value [5] was 110.21% and the “Growth Percent SK-MEL-2” value [6] was 51.79%. For the same compound, the “Growth Percent SNB-75” value [7] was 42.86%, the “Growth Percent UACC-257” value [8] was 43.93% and the “Growth Percent NCI-H522” value [9] was 61.06%. The “Growth Percent NCI/ADR-RES” value [10] was −26.24%, the “Growth Percent LOX IMVI” value [11] was −42.03% and the “Growth Percent MDA-MB-468” value [12] was −86.96%. For the same compound, the “Growth Percent RXF 393” value [13] was 36.69%, the “Growth Percent COLO 205” value [14] was 104.04% and the “Growth Percent NCI-H460” value [15] was 83.60%. For the same compound, the “Growth Percent A549/ATCC” value [16] was 111.54%, the “Growth Percent NCI-H23” value [17] was 9.53% and the “Growth Percent SNB-19” value [18] was 87.35%. The “Growth Percent ACHN” value [19] was 34.93%, the “Growth Percent SK-MEL-5” value [20] was 48.53% and the “Growth Percent A498” value [21] was 50.80%. For the same compound, the “Growth Percent CAKI-1” value [22] was 24.02%, the “Growth Percent PC-3” value [23] was −9.72% and the “Growth Percent SF-539” value [24] was 58.79%. For the same compound, the “Growth Percent SF-295” value [25] was 68.77%, the “Growth Percent SK-OV-3” value [26] was 92.58% and the “Growth Percent RPMI-8226” value [27] was 6.29%. For the same compound, the “Growth Percent BT-549” value [28] was 66.40- Percent, the “Growth Percent EKVX” value [29] was 98.12% and the “Growth Percent UO-31” value [30] was 70.30%. The “Growth Percent HCT-15” value [31] was 45.84%, the “Growth Percent HT29” value [32] was 102.45% and the “Growth Percent MCF7” value [33] was 6.58%. For the same compound, the “Growth Percent OVCAR-8” value [34] was 0.32%, the “Growth Percent KM12” value [35] was 51.79% and the “Growth Percent M14” value [36] was 53.77%. For the same compound, the “Growth Percent SR” value [37] was 0.20%, the “Growth Percent UACC-62” value [38] was 53.27% and the “Growth Percent DU145” value [39] was 41.32%. The “Growth Percent OVCAR-3” value [40] was −52.32%, the “Growth Percent HL-60(TB)” value [41] was −37.71% and the “Growth Percent MOLT-4” value [42] was −41.57%. For the same compound, the “Growth Percent HOP-62” value [43] was 58.46%, the “Growth Percent HOP-92” value [44] was −18.39% and the “Growth Percent IGROV1” value [45] was 975%. For the same compound, the “Growth Percent U251” value [46] was 34.47%, the “Growth Percent SK-MEL-28” value [47] was 79.45% and the “Growth Percent SF-268” value [48] was 8.47%. For the same compound, the “Growth Percent HCC-2998” value [49] was 107.02%, the “Growth Percent Delta” value ([50]; delta over all cell lines) was 119.50% and the “Growth Percent Mean” value ([50]; mean over all cell lines) was 32.54%. The “Growth Percent Range” value ([50]; range over all cell lines) was 198.89%, the “Growth Percent T-47D” value [51] was −28.61% and the “Growth Percent HCT-116” value [52] was −63.06%. The “Growth Percent MDA-MB-435” value [53] was −85.27%, the “Growth Percent K562” value [54] was −21.06% and the “Growth Percent 786-0” value [55] was 3.74%. For the same compound, the “Growth Percent HS 578T” value [56] was 50.08%, the “Growth Percent NCI-H226” value [57] was 88.85% and the “Growth Percent TK-10” value [58] was 111.93%.
